Measured values from patent US20260120814A1, “SYSTEMS, METHODS, AND DEVICES FOR PREDICTING PHARMACOKINETIC INFLUENCES ON KETOGENESIS FOLLOWING ADMINISTRATION OF TRICAPRILIN” (CERECIN INC., priority 2022, published 2026).
Values after ≈ are worked out from the molar mass of the structure shown.

What was measured:
[1] = Phase I clinical pharmacokinetic study of AC-SD-03; format: in vivo, healthy male (Caucasian and Chinese) volunteers; settings: human
Method: A clinical pharmacokinetic study can be conducted (e.g., to generate the model inputs 106) with the MCT formulation. For example, a clinical pharmacokinetic study was conducted on the tricaprilin product AC-SD-03, approved by the local Institutional Review Board and carried out in compliance with the Good Clinical Practice guidelines of the International Conference of Harmonization (ICH-GCP). It was an open-label, randomized 2-way crossover study. Twenty healthy male (Caucasian and Chinese) volunteers in an age range of 18-50 years were enrolled. All subjects had undergone a supervised overnight fast of at least 8 h until 1 h before their scheduled morning dose. The breakfast consisting of 2 pieces of toast with butter, 2 strips of bacon, 2 scrambled eggs, 113 g of hash browns, and 240 mL of whole milk was standardized for all subjects. […] An additional 60 ml of water was used to rinse the dosing cup and administered to the subjects. Water was only restricted 1 h before and 1 h after drug administration, but was allowed ad libitum at all other times. Food and other fluid intake was restricted throughout the confinement period. Upon peroral administration of a single dose of the formulation, the blood tricaprilin, octanoic acid, and ketone body concentrations were quantified. For tricaprilin, blood samples were collected at 0, 1.5, 2.0, 2.5, and 8 h. […]

[2] = Estimated absorption of undigested tricaprilin into blood circulation; settings: during the first 4 hours
Method: As a next step, the digestion of the MCT formulation (such as AC-SD-03) in vitro can be measured. The formulation can be exposed to a gastric medium followed by lipolysis in a medium simulating intestinal conditions. The latter can result in the liberation of fatty acids expressed as the percentage of digested free fatty acid (e.g., tricaprilin), as shown at the graph 306. For each mole of tricaprilin, three moles of titratable fatty acids can be released. Within the first 5 min, 40±3% of tricaprilin can be converted to octanoic acid, followed by a gradual reduction in the digestion rate. After 15 min, the digestion profile plateaued at 83±4%. Assuming rapid absorption from the intestine, the digestion rate (kd) and extent (F) of lipolysis are mainly responsible for the bioavailability of octanoic acid. […] On a side note, there can be a certain probability that undigested tricaprilin can be absorbed into blood circulation as well. However, one estimated rate can be […] for this process. This corresponds to less than 0.5% of the total dose during the first 4 hours. […] Metabolic processes such as the hepatic conversion of tricaprilin would generally result in the formation of octanoic acid, subsequently converted to ketone bodies.

[3] = PBB model population parameters fitted to the phase I clinical trial; set-up: species or system humans; settings: population parameter, after peroral AC-SD-03
Source text: In some scenarios the PBB model 102 can be written in the Mixtran programming language and executed using Monolix 2020R1 (e.g., Antony, France). The initial parameters and fixed-parameter ranges (e.g., such as those shown in Table 1 and/or the model inputs 106) can be obtained (e.g., from experimentation data and/or literature data).
In the following, population parameters can be obtained for the target population treated with a MCT formulation (e.g., AC-SD-03) using the Stochastic Approximation Expectation-Maximization (SAEM) algorithm. The population parameters can be considered to be log-normally distributed. Additionally, the estimation tasks of the empirical Bayes estimates (EBEs) and the conditional distribution can be performed to calculate the individual predictions and give the uncertainty of the individual parameters and the data for each individual, respectively. The individual clinical data 124 for the free fatty acid (e.g., octanoic acid) and ketones obtained from the pharmacokinetic study can be used for model validation. For instance, the accuracy of the prediction can be assessed by calculating the relative mean absolute prediction error (MAPE, %) using the following equation: […]
In some scenarios, considering that all population parameters can be within the initial ranges and prediction errors can remain at a low level, initial values (Table 1) can provide an estimate of the physiological and formulation-related influences. This leads to the following conclusions. Once tricaprilin reaches the small intestine, with a rate of 1.7 h^1, the absorption of fatty acids can become the rate-limiting step. Also, there can be more significant fluctuations in the absorption rate between different individuals as compared to the much faster lipolysis (4.6 h-1) and ketogenesis (2.6 h^1). The conversion of octanoic acid in the liver can play a minor role in the availability of the active form of tricaprilin. […] These observations can be systematically evaluated in the PPSA, and/or can be provided to the PBB model 102 as model inputs 106 or as part of a validation process.

[4] = cited from earlier work
[5] = set-up: species or system humans; settings: human, in vivo
Source text: To estimate the parameters involved in the distribution, metabolism, and elimination of the free fatty acid (such as octanoic acid), reliable data sources can be identified for generating a training data set to describe plasma pharmacokinetics after intravenous administration of either free fatty acids (such as octanoic acid) or ketones. Pharmacokinetic data 120 related to the MCT (such as tricaprilin) and its metabolites in humans, which can be included in the training data 122 and/or used by a validation system 124 of the biopharmaceutics modeling system, is summarized in Table 2:
In some examples, ketone plasma concentration can be quantified following an intravenous bolus injection of sodium acetoacetate (n=12). Acetoacetate and D-f3-hydroxybutyrate (n=6), two main components of plasma ketones, can also be quantified upon intravenous infusion of D-f3-hydroxybutyrate at three different doses. Blood free fatty acid (such as octanoic acid) concentration can be measured upon peroral administration of the free fatty acid (e.g, octanoic acid) at five different doses to a patient population (n=3 per dose). This pharmacokinetic data 120 can be analyzed using PKanalix 2020R1 (e.g., Lixoft, Antony, France). These injections, infusions, and/or consumptions of the doses by a target patient can be provided to the PBB model 102 (e.g., as the patient data 105). […]

| tricaprilin found in blood circulation ([1]; phase I clinical trial, peroral AC-SD-03) | Cmax ([1]; male, blood, oral, 50 g AC-SD-03 (42,500 μmol tricaprilin), read-out: Cmax of undigested triglyceride) [µM] | fraction of total dose absorbed as undigested tricaprilin [2] | lipolysis rate [3] [h⁻¹] | VOA, volume of distribution of octanoic acid [5] [L] | absorption rate constant (ka) [5] [h⁻¹] | absorption rate of fatty acids [3] [h^1] | ketogenesis rate [3] [h^1] | SMILES | aqueous solubility [4] [µg/mL] |
| --- | --- | --- | --- | --- | --- | --- | --- | --- | --- |
| negligible amounts | 1.05 | less than 0.5% | 4.6 | – | – | – | – | CCCCCCCC(=O)OCC(COC(=O)CCCCCCC)OC(=O)CCCCCCC [Tricaprilin] | 0.4 (≈ 0.85 µM) |
| – | – | – | – | 40.55 to 163.26 | 0.23 to 3.16 | 1.7 | 2.6 | CCCCCCCC(=O)O [octanoic acid] | – |
